Data set [1] in a line: in vitro. To be noted: human, A2780 Cell Viability; for viability: 24 hrs; for viability at 24 h, 800 μM / viability at 24 h, 1600 μM / viability at 24 h, 3200 μM: A2780 ovarian cancer cells. The method, then:
(§1) Two types of human tumor cells were used in this investigation: BXPC3 human pancreatic cancer cells and A2780 human ovarian cancer cells. The BXPC3 cells were originally obtained from American Type Cell Culture (ATCC). The ovarian tumor cells were gifts from Roswell Park Cancer Institute, Buffalo, N.Y. All tumor cells were maintained at 37° C. in a humidified 5% CO2 atmosphere in T75 tissue culture flasks containing 20 mL of Roswell Park Memorial Institute (RPMI) 1640 containing 2 mM L-glutamine, 10% fetal bovine serum (FBS) and 1% penicillin and streptomycin (100 IU/mL penicillin and 100 μg/mL streptomycin). The tumor cells were split at a ratio of 1:5 every 4-5 days by trypsinization and resuspended in fresh medium in a new flask. Cells were harvested for experiments at 70-90% confluency.
(§2) CPI-613 (i.e., 6,8-bis(benzylthio)octanoic acid) stock solutions at concentrations of 8, 4, 2, 1.5 and 0.5 mM were prepared in the appropriate vehicles. The molar ratio of vehicle to CPI-613 was maintained at 8:1. The corresponding vehicle concentrations were 64, 32, 16, 12, and 4 mM respectively. A sixty-four mM aliquot of vehicle was dissolved in 10 mL of water. Next, 8 mM of CPI-613 was added and the mixture was stirred until a clear solution was obtained. […] A 5 μL aliquot of this stock solution was added to 95 μL of tumor cells in media. Upon dilution in the wells, the corresponding drug concentrations were 400, 200, 100, 75 and 25 μM respectively.
(§3) For the sodium salt and potassium salt form of CPI-613, 1 equivalent of CPI-613 solid was dissolved in water. Sixty-two mg of CPI-613 (0.00016 mol) was added to 10 mL of water, then 165 μL of 1M NaOH or KOH was added and stirred until a clear solution was obtained. This gave a 16 mM solution. The resulting 16 mM solution was then serially diluted, thereby providing 8 mM and 4 mM solutions of the CPI-613 salt form. For the ammonium salt, vehicle to drug ratio was maintained at 8:1 and the formulation was prepared using procedures analogous to those described above in Section 2 relating to preparation of CPI-613 formulations in different vehicles.
(§4) CPI-613 formulated in 1M triethanolamine (TEA) was used as an internal control during formulation screening. To prepare a 16 mM of working stock of CPI-613, 50 mg/mL of CPI-613 (128.66 mM of CPI-613 in 1M TEA) was diluted in complete cell culture media containing 10% FBS. That is, 310 μL of a 128.66 mM solution of CPI-613 in 1M TEA was added to 2.19 mL of cell culture media. This stock was further diluted serially in complete media to give 8 mM, 4 mM 2 mM, 1.5 mM and 0.5 mM working solutions. On the day of testing, 5 μL of this working solution was added to 95 μL of cell culture media (20 fold dilution) resulting final concentrations of 400, 200, 100, 75 and 25 μM CPI-613, respectively. The ratio of CPI-613 to TEA was maintained at 1:8 ratio at all times.
(§5) The cell viability of CPI-613 formulations formulated at a ratio of 1:8, CPI-613 to vehicle, was assessed by exposing the A2780 ovarian tumor cells and BXPC3 human pancreatic cancer cells to the following CPI-613 concentrations: 400 μM (3200 μM vehicle), 200 μM (1600 μM vehicle), 100 μM (800 μM vehicle), 75 μM (600 μM vehicle) and 25 μM (200 μM vehicle) The impact of corresponding vehicles at 3200, 1600 and 800 μM concentrations was also tested in tumor cells for cell viability. […] CPI-613 in TEA was used as an internal control. The tumor cells were treated for 24 hrs with the test article in serum-containing medium. After 24 hrs of treatment the number of viable tumor cells was determined.
(§6) The number of cells targeted for the study was 4×10^3 per well in 100 μL of medium. The actual number of cells were counted and seeded in the wells of a 96 well-plate. The cells were incubated for ˜24 hrs before addition of CPI-613.
(§7) For each cell line the concentrations of test articles or vehicles specified above was used.

Data set [2] in a line: in vitro. To be noted: human, BXPC3 Cell Viability; for viability: 24 hrs; for viability at 24 h, 800 μM / viability at 24 h, 1600 μM / viability at 24 h, 3200 μM: BXPC3 pancreatic cancer cells. The method, then: as §1, §2, §3, §4, §5, §6, §7
Data set [3] concerns A2780 ovarian tumor cells and BXPC3 human pancreatic cancer cells. The data set can be described thus: CellTiter Glo cell viability assay, text statements not split by cell line. In kind it is cell-based. To be noted: for impact of vehicle on cancer cell killing: vehicle alone 3200 μM; for cell kill: 24 hrs. The method, then:
Two types of human tumor cells were used in this investigation: BXPC3 human pancreatic cancer cells and A2780 human ovarian cancer cells. The BXPC3 cells were originally obtained from American Type Cell Culture (ATCC). […] The tumor cells were split at a ratio of 1:5 every 4-5 days by trypsinization and resuspended in fresh medium in a new flask. Cells were harvested for experiments at 70-90% confluency.
The corresponding vehicle concentrations were 64, 32, 16, 12, and 4 mM respectively. A sixty-four mM aliquot of vehicle was dissolved in 10 mL of water. […] A 5 μL aliquot of this stock solution was added to 95 μL of tumor cells in media. Upon dilution in the wells, the corresponding drug concentrations were 400, 200, 100, 75 and 25 μM respectively.
This gave a 16 mM solution.
This stock was further diluted serially in complete media to give 8 mM, 4 mM 2 mM, 1.5 mM and 0.5 mM working solutions.
The tumor cells were treated for 24 hrs with the test article in serum-containing medium. After 24 hrs of treatment the number of viable tumor cells was determined.
The number of cells targeted for the study was 4×10^3 per well in 100 μL of medium. The actual number of cells were counted and seeded in the wells of a 96 well-plate.
For each cell line the concentrations of test articles or vehicles specified above was used. Five μL of the working solution for each test article or vehicle was added to 95 μL of cell culture media. The corresponding final concentrations of test articles are 20 fold more diluted than the working solutions. […] Additionally, a set of wells was treated with cell culture medium in the absence of cells to obtain a value for background luminescence.
The number of viable cells was determined by using the CellTiter Glo® Assay. Specifically, reagents were mixed and allowed to come to room temperature according to instructions from Promega, Inc. (Madison, Wis.). Cell plates were removed from the cell culture incubator and left on the bench for 30 minutes until they reach room temperature. A one-hundred μL aliquot CellTiter Glo® reagent was added to each well with a 12-channel Eppendorf pipettor. The cells were lysed by shaking the plate for 2 minutes in a shaker. Then, the cells were kept at room temperature for 10 minutes to stabilize the luminescent signal. The luminescence was measured using the FLUOstar OPTIMA plate reader (BMG Labtech, Inc., Durham, N.C.).
Data from luminescence readings was copied onto EXCEL spreadsheets, and cell growth relative to untreated cells was calculated, using the following equation: […]
The calculated values were imported into SigmaPlot, v11. A Four-Parameter Logistic Curve of the “mean relative cell growth as a function of the concentrations of the test articles” was generated. The EC50 values were determined from the curves. The R-squared value provides an indication of the degree of fitness of data to the curve. For each experiment, the percentage of viable cells was be expressed as the mean of 9 replicates. The average was calculated by taking the mean±standard deviation of the three experiments.

Data set [4] deals with A2780 human ovarian cancer cells. The experiment in a line: CellTiter Glo cell viability assay, A2780 cells. To be noted: Homo sapiens, A2780, 24 h. The method, then:
as §1, §2, §3, §4, §5, §6, §7

Data set [5] has as its system BXPC3 human pancreatic cancer cells. The experiment in a line: CellTiter Glo cell viability assay, BXPC3 cells. To be noted: Homo sapiens, BXPC-3, 24 h. The method, then:
as §1, §2, §3, §4, §5, §6, §7

Counter-ions that a name gives are not always drawn. Bounds are passed on as bounds.

Take `CC(O)CN(CC(C)O)CC(C)O` (stereo not shown) [Triisopropanolamine]: the viability was above 95% in the data set “in vitro [1]” (vehicle alone 800 μM); above 95% in the data set “in vitro [1]” (vehicle alone 1600 μM); 70 to 85% in the data set “in vitro [1]” (vehicle alone 3200 μM); above 95% in “in vitro [2]” (vehicle alone 800 μM); above 95% in the data set “in vitro [2]” (vehicle alone 1600 μM); 70 to 85% in “in vitro [2]” (vehicle alone 3200 μM). The “impact of vehicle on cancer cell killing” value in data set [3] is listed as “appear to have come cell killing effects”.

For the molecule `CCN(CC)CC` [Triethylamine], the viability at 24 h, 800 μM in “in vitro [1]” (vehicle alone 800 μM) and in “in vitro [2]” (vehicle alone 800 μM) was above 95% each time. Further, the viability at 24 h, 1600 μM in “in vitro [1]” (vehicle alone 1600 μM) and in “in vitro [2]” (vehicle alone 1600 μM) was above 95% each time. The viability at 24 h, 3200 μM in “in vitro [1]” (vehicle alone 3200 μM) and in “in vitro [2]” (vehicle alone 3200 μM) was above 95% throughout. Also, the “impact of vehicle on cancer cell killing” value in data set [3] is listed as “did not show a significant impact on cancer cell killing”.

Regarding `O=C(O)CCCCC(CCSCc1ccccc1)SCc1ccccc1` (stereo not shown) [CPI-613 ammonium salt], the viability at 25 µM in data set [4] (read-out: A2780 Cell Viability (ammonium salt formulations), CPI-613 25 μM, ratio 1:8) was above 95%; in data set [5] (read-out: BXPC3 Cell Viability (ammonium salt formulations), CPI-613 25 μM, ratio 1:8) it was above 95%. Besides, the viability at 75 µM in data set [4] (read-out: A2780 Cell Viability (ammonium salt formulations), CPI-613 75 μM, ratio 1:8) was above 95%; in data set [5] (read-out: BXPC3 Cell Viability (ammonium salt formulations), CPI-613 75 μM, ratio 1:8), above 95%. Further, the viability at 100 µM is 70 to 95% in data set [4] (read-out: A2780 Cell Viability (ammonium salt formulations), CPI-613 100 μM, ratio 1:8) and above 95% in data set [5] (read-out: BXPC3 Cell Viability (ammonium salt formulations), CPI-613 100 μM, ratio 1:8). Moreover, the viability at 200 µM lay in the range of 10 to 30% in data set [4] (read-out: A2780 Cell Viability (ammonium salt formulations), CPI-613 200 μM, ratio 1:8) and 30 to 70% in data set [5] (read-out: BXPC3 Cell Viability (ammonium salt formulations), CPI-613 200 μM, ratio 1:8). The viability at 400 µM in data set [4] (read-out: A2780 Cell Viability (ammonium salt formulations), CPI-613 400 μM, ratio 1:8) was below 10%; in data set [5] (read-out: BXPC3 Cell Viability (ammonium salt formulations), CPI-613 400 μM, ratio 1:8), below 10%. For the same molecule, the cell kill is recorded as 70-80% in data set [3] (ammonium salt formulation at 200 μM) and 100% in data set [3] (ammonium salt formulation at 400 μM).

`OCCNCCO` [Diethanolamine]: the viability at 24 h, 800 μM in “in vitro [1]” (vehicle alone 800 μM) and in the data set “in vitro [2]” (vehicle alone 800 μM) was 85 to 95% in each case. The viability at 24 h, 1600 μM in the data set “in vitro [1]” (vehicle alone 1600 μM) and in “in vitro [2]” (vehicle alone 1600 μM) was 85 to 95% each time. For the same molecule, the figures for the viability at 24 h, 3200 μM in “in vitro [1]” (vehicle alone 3200 μM) and in “in vitro [2]” (vehicle alone 3200 μM) were above 95% and 85 to 95%, respectively. In addition, in data set [3], the “impact of vehicle on cancer cell killing” value is listed as “did not show a significant impact on cancer cell killing”.

For `NCCN` [Ethylenediamine], the viability at 24 h, 800 μM in the data set “in vitro [1]” (vehicle alone 800 μM) was 85 to 95%; in “in vitro [2]” (vehicle alone 800 μM) it was above 95%. In addition, the viability at 24 h, 1600 μM in “in vitro [1]” (vehicle alone 1600 μM) lay within 85 to 95%; in “in vitro [2]” (vehicle alone 1600 μM) it was 70 to 85%. Further, the viability at 24 h, 3200 μM in “in vitro [1]” (vehicle alone 3200 μM) and in the data set “in vitro [2]” (vehicle alone 3200 μM) was below 70% each time. Further, the “impact of vehicle on cancer cell killing” value in data set [3] is recorded as “appear to have come cell killing effects”.

For the origin of these results see US11065335B2, “Methods of treating leukemia using compositions containing bis(benzylthio)octanoic acid and ion pairs thereof” (Rafael Pharmaceuticals, Inc., priority 2007, dated 2021).
